According to US11952365B2, “Anti-viral compounds” (Aligos Therapeutics, Inc., priority 2020, dated 2024):
Where two headings read alike, the source gives them in different places.

Legend:
in vitro [1] = conditions: human
[2] = system: human beta-coronavirus OC43; test: microbe, parasite or virus in culture; assay type: cell-based; conditions: Betacoronavirus 1, OC43, HeLa, 144 h
human cathepsin L = target: T1, human cathepsin L (Homo sapiens, UniProt P07711); test: cathepsin L assay; assay type: biochemical; conditions: 10 pM human cathepsin L, Z-FR-AMC 2 μM, class symbols
T1 construct: purchased R&D Systems
Description: For the cathepsin L assay, 10 pM of human cathepsin L (R&D Systems; Minneapolis, MN) was preincubated for 30 mins with test compounds. Reactions were initiated by the addition of a peptide substrate Z-FR-AMC (final concentration 2 μM, Anaspec; Fremont, CA). Fluorescence was measured at 2-minute intervals for 30 mins using a 355/460 excitation/emission filter module on an Envision plate reader (Perkin Elmer; Waltham, MA). The IC50 values were calculated for each assay by fitting the curves using a four-parameter equation in GraphPad Prism.

HRV3C = HRV3C (Human rhinovirus 14, UniProt P03303); test: HRV3C protease assay (duplex, SAMDI-MS); assay type: biochemical, HRV; conditions: 30 mins preincubation
Description: Protease assays were performed in 384-well low volume polypropylene microtiter plates at ambient temperature. For the duplex assay, 3CLpro and HRV3C was added using a Multidrop Combi (Thermo Scientific; Waltham, MA) and preincubated for 30 mins with small molecules. The reactions were initiated by the addition of the two peptide substrates. The reactions were incubated for 30 mins and quenched by the addition of 0.5% formic acid (final) with subsequent neutralization using 1% sodium bicarbonate (final). Internal standard peptides were added in 20 mM Hepes pH 8.0 for quantitation of the protease products. For SAMDI-MS analysis, 2 μL of each reaction mixture was transferred using a 384-channel automated liquid handler to SAMDI biochip arrays functionalized with a neutravidin-presenting self-assembled monolayer. The SAMDI arrays were incubated for 1 h in a humidified chamber to allow the specific immobilization of the biotinylated peptide substrates, cleaved products and internal standards. The samples were purified by washing the SAMDI arrays with deionized ultrafiltered water and dried with compressed air. A matrix comprising alpha-cyano cinnamic acid in 80% acetonitrile:20% aqueous ammonium citrate was applied in an automated format by dispensing 50 nL to each spot in the array. SAMDI-MS was performed using reflector-positive mode on an AB Sciex TOF-TOF 5800 System (AB Sciex, Framingham, MA) with 400 shots/spot analyzed in a random raster sampling. For data analysis, area under the curves (peaks) (AUCs) for the product and internal standard were calculated using the TOF/TOF Series Explorer (AB Sciex), and the amount of product formed was calculated using the equation (AUC product/AUC internal standard). The amount of product generated was calculated using the ratio of product area under the curve (AUC) divided by the AUC of the internal standard. Negative controls were pre-quenched with 0.5% formic acid final. Assay robustness was determined by Z-Factor. The IC50s were determined by fitting the curves using a four-parameter equation in Graphpad Prism 8.

3CLpro = 3CLpro (Severe acute respiratory syndrome coronavirus 2, UniProt P0DTD1); test: SARS-CoV-2 3CLpro protease assay (duplex, SAMDI-MS); assay type: biochemical; set-up: For the duplex assay, 3CLpro and HRV3C was added; conditions: 3CLpro, 30 mins preincubation, class symbols; read-out: SARS-Cov-2 IC50
[3] = system: SARS-CoV-2-GHB-03021/2020; test: SARS-CoV-2 Infection Model in Huh7 Cells; assay type: cell-based; conditions: Severe acute respiratory syndrome coronavirus 2, Huh-7, 96 h, SARS-CoV-2, day 4 p.i., MTS, class symbols
[4] = Cytotoxicity plates without OC43 virus (cell-titer-glo); assay type: cell-based, human; conditions: human; HeLa cells without OC43 virus, class symbols
Description: The human beta-coronavirus OC43 was purchased from ATCC (Manassas, VA) and propagated using HCT-8 human colorectal epithelial cells (ATCC). HeLa human cervical epithelial cells (ATCC) were used as susceptible host cell lines and were cultured using EMEM media, supplemented with 10% fetal bovine serum (FBS), 1% (v/v) penicillin/streptomycin (P/S), 1% (v/v) HEPES and 1% (v/v) Cellgro Glutagro™ supplement (all Corning, Manassas, VA) at 37° C. For the OC43 antiviral assay, 1.5×10^4 HeLa cells per well were plated in 100 μL complete media in white 96-well plates with clear bottoms at 37° C. for up to 24 h to facilitate attachment and allow cells to recover from seeding stresses. Next day, the cell culture medium was removed. Serially diluted compounds in 100 μL assay media (EMEM, 2% FBS, 1% P/S, 1% Cellgro Glutagro™ supplement, 1% HEPES) were added to the cells and incubated for 4H at 37° C. in a humidified 5% CO2 incubator. 100 μL of OC43 virus stock was diluted to a concentration known to produce optimal cytopathic effect, inducing 80-90% reduction in cell viability. 96-well plates were incubated for 6 (HeLa) days at 33° C.; each plate contains uninfected control wells as well as virus-infected wells that were not treated with compound. Cytotoxicity plates without the addition of OC43 virus were carried out in parallel. At the end of the incubation period, 100 μL cell culture supernatant was replaced with 100 μL cell-titer-glo reagent (Promega, Madison, WI) and incubated for at least 10 min at rt prior to measuring luminescence. Luminescence was measured on a Perkin Elmer (Waltham, MA) Envision plate reader. Antiviral % inhibition was calculated as follows: [(Compound treated cells infected sample)−(no compound infected control)]/[(Uninfected control)−(no compound infected control)]*100; Using GraphPad (San Diego, CA) prism software version 8.3.1, the antiviral dose-response plot was generated as a sigmoidal fit, log(inhibitor) vs response-variable slope (four parameters) model and the EC50 was calculated which is the predicted compound concentration corresponding to a 50% inhibition of the viral cytopathic effect.

[5] = system: SARS-CoV-2-GHB-03021/2020; test: microbe, parasite or virus in culture; assay type: cell-based; conditions: Severe acute respiratory syndrome coronavirus 2, Vero C1008, 96 h; read-out: VeroE6 + CP (EC50)
in vitro [6] = conditions: African green monkey, VeroE6 + CP (CC50), Vero E6-eGFP cells with CP-100356, absence of virus, MTS
[7] = OC43 in HeLa cells, 6 days at 33° C., class symbols, read-out: EC50
[8] = HRV3C, class symbols, read-out: HRV IC50
[9] = OC43 in HeLa cells, 6 days at 33° C., bound, read-out: EC50

| Compound | CC50 (in vitro [1]) | EC50 [2, 7] | IC50 (human cathepsin L) | IC50 (HRV3C; [8]) | IC50 (3CLpro) | EC50 [3] | CC50 at 6 days [4] | EC50 [5] | IC50 (HRV3C; HRV IC50, HRV3C, bound) | CC50 (in vitro [6]; numeric bounds) | EC50 [2, 9] | IC50 (HRV3C; HRV IC50, HRV3C, class symbols) | EC50 [2] | CC50 (in vitro [6]; class symbols) | IC50 (HRV3C; HRV3C, bound, read-out: HRV IC50) |
| --- | --- | --- | --- | --- | --- | --- | --- | --- | --- | --- | --- | --- | --- | --- | --- |
| O=C(NCc1ccccc1)C(=O)C(C[C@@H]1CCCNC1=O)NC(=O)[C@@H]1[C@H]2CCC[C@H]2CN1C(=O)c1cc2ccccc2[nH]1 (stereo partly drawn) [Compound 17, (1S,3aR,6aS)—N-(4-(benzylamino)-3,4-dioxo-1-((S)-2-oxopiperidin-3-yl)butan-2-yl)-2-(1H-indole-2-carbonyl)octahydrocyclopenta[c]pyrrole-1-carboxamide] | > 10 µM | 0.1 to 1 µM | 1 to 10 µM | 2 to 20 µM | 0.02 to 0.2 µM | 1 to 10 µM | > 10 µM |  |  |  |  |  |  |  |  |
| COc1cccc2[nH]c(C(=O)N3C[C@@H]4CCC[C@@H]4[C@H]3C(=O)N[C@@H](C[C@@H]3CCNC3=O)C(=O)CO)nc12 [Compound 37] | > 100 µM | 1 to 10 µM | ≥ 10 µM | 20 to 100 µM | 0.02 to 0.2 µM | 1 to 10 µM | > 10 µM |  |  |  |  |  |  |  |  |
| COc1cccc2[nH]c(C(=O)N3C[C@@H]4CCC[C@@H]4[C@H]3C(=O)NC(C[C@@H]3CCNC3=O)C(=O)C(N)=O)cc12 (stereo partly drawn) [Compound 56, 3-{[(1S,3aR,6aS)-2-(4-methoxy-1H-indole-2-carbonyl)-hexahydro-1H-cyclopenta[c]pyrrol-1-yl]formamido}-2-oxo-4-[(3S)-2-oxopyrrolidin-3-yl]butanamide] | > 100 µM | 10 to 100 µM | ≥ 10 µM | 0.2 to 2 µM | 0.02 to 0.2 µM | 10 to 100 µM | > 10 µM |  |  |  |  |  |  |  |  |
| COc1cccc2[nH]c(C(=O)N3C[C@@H]4CCC[C@@H]4[C@H]3C(=O)N[C@@H](C[C@@H]3CCNC3=O)C(=O)c3nc4ccccc4o3)cc12 [Compound 75, (1S,3aR,6aS)—N-[(2S)-1-(1,3-benzoxazol-2-yl)-1-oxo-3-[(3S)-2-oxopyrrolidin-3-yl]propan-2-yl]-2-(4-methoxy-1H-indole-2-carbonyl)-hexahydro-1H-cyclopenta[c]pyrrole-1-carboxamide] |  | 0.1 to 1 µM | ≥ 10 µM |  | 0.02 to 0.2 µM |  | > 10 µM | 1 to 10 µM | > 10 µM | > 100 µM |  |  |  |  |  |
| O=C1NCC[C@H]1C[C@H](NC(=O)[C@@H]1[C@H]2CCC[C@H]2CN1C(=O)c1cc2c(=O)[nH]ccc2[nH]1)C(=O)CO [Compound 76, (1S,3aR,6aS)—N-[(2S)-4-hydroxy-3-oxo-1-[(3S)-2-oxopyrrolidin-3-yl]butan-2-yl]-2-{4-oxo-1H,5H-pyrrolo[3,2-c]pyridine-2-carbonyl}-hexahydro-1H-cyclopenta[c]pyrrole-1-carboxamide] |  |  | ≥ 10 µM |  | 0.02 to 0.2 µM |  | > 10 µM | 10 to 100 µM |  | > 100 µM | > 10 µM | 0.2 to 2 µM |  |  |  |
| Cn1ccc2[nH]c(C(=O)N3C[C@@H]4CCC[C@@H]4[C@H]3C(=O)N[C@@H](C[C@@H]3CCNC3=O)C(=O)CO)cc2c1=O [Compound 77, (1S,3aR,6aS)—N—((S)-4-hydroxy-3-oxo-1-((S)-2-oxopyrrolidin-3-yl)butan-2-yl)-2-(5-methyl-4-oxo-4,5-dihydro-1H-pyrrolo[3,2-c]pyridine-2-carbonyl)octahydrocyclopenta[c]pyrrole-1-carboxamide] |  |  | ≥ 10 µM |  | 0.02 to 0.2 µM |  | > 10 µM | 10 to 100 µM |  |  |  | 2 to 20 µM | > 10 µM | > 10 µM |  |
| O=C1NCC[C@H]1C[C@H](NC(=O)[C@@H]1[C@H]2CCC[C@H]2CN1C(=O)c1cc2ncccc2[nH]1)C(=O)CO [Compound 78, (1S,3aR,6aS)—N—((S)-4-hydroxy-3-oxo-1-((S)-2-oxopyrrolidin-3-yl)butan-2-yl)-2-(1H-pyrrolo[3,2-b]pyridine-2-carbonyl)octahydrocyclopenta[c]pyrrole-1-carboxamide] |  | 1 to 10 µM | ≥ 10 µM | 2 to 20 µM | 0.02 to 0.2 µM |  | > 10 µM | 10 to 100 µM |  | > 100 µM |  |  |  |  |  |
| COc1cccc2[nH]c(C(=O)N3C[C@@H]4CCC[C@@H]4[C@H]3C(=O)N[C@@H](C[C@@H]3CCNC3=O)C(=O)c3nc4ccccc4[nH]3)cc12 [Compound 92, (1S,3aR,6aS)—N-[(2S)-1-(1H-1,3-benzodiazol-2-yl)-1-oxo-3-[(3S)-2-oxopyrrolidin-3-yl]propan-2-yl]-2-(4-methoxy-1H-indole-2-carbonyl)-hexahydro-1H-cyclopenta[c]pyrrole-1-carboxamide] |  |  | ≥ 10 µM |  | 0.2 to 2 µM |  | > 10 µM | 10 to 100 µM | > 10 µM | > 100 µM | > 10 µM |  |  |  |  |
| COc1cccc2[nH]c(C(=O)N3Cc4ccccc4C[C@H]3C(=O)N[C@@H](C[C@@H]3CCNC3=O)C(=O)COCc3ccccc3)cc12 [Compound 99] |  |  | ≥ 10 µM |  | 2 to 20 µM |  | > 10 µM | 10 to 100 µM |  |  | > 10 µM |  |  | > 10 µM | > 10 µM |
| COc1cccc2[nH]c(C(=O)N3C[C@@H]4CCC[C@@H]4[C@H]3C(=O)N[C@@H](C[C@@H]3CCNC3=O)C(=O)C(=O)NCC(F)(F)F)cc12 [Compound 114] |  | 1 to 10 µM | ≥ 10 µM | 2 to 20 µM | 0.2 to 2 µM |  | > 10 µM | 10 to 100 µM |  | > 50 µM |  |  |  |  |  |
